Data as given in ChEMBL document CHEMBL1123108 (J Med Chem, 1985).

Columns and labels:
Aromatase [1] = target: T1, Aromatase (Homo sapiens, UniProt P11511); experiment: Inhibition of Cytochrome P450 19A1 at 20 ug/mL; None; details: at 20 µg/mL
T1 sequence (P11511 whole entry): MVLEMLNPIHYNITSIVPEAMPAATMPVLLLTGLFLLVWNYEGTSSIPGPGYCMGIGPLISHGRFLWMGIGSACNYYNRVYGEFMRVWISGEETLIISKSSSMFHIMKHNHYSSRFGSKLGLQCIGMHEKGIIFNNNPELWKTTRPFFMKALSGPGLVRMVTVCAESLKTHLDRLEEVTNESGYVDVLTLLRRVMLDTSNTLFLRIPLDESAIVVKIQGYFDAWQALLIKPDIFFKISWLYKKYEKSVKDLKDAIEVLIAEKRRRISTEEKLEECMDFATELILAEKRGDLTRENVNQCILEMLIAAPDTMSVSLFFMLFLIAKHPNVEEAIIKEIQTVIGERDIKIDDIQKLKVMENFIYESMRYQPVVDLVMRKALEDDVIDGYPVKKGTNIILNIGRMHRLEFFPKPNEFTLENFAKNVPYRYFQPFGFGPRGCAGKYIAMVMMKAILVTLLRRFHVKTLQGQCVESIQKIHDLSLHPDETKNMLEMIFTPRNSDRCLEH

[2] = target: T2, Cholesterol side-chain cleavage enzyme, mitochondrial (Bos taurus, UniProt P00189); experiment: Inhibition of bovine adrenal desmolase at 50 ug/mL; None; details: cattle; at 50 µg/mL
T2 sequence (P00189 whole entry): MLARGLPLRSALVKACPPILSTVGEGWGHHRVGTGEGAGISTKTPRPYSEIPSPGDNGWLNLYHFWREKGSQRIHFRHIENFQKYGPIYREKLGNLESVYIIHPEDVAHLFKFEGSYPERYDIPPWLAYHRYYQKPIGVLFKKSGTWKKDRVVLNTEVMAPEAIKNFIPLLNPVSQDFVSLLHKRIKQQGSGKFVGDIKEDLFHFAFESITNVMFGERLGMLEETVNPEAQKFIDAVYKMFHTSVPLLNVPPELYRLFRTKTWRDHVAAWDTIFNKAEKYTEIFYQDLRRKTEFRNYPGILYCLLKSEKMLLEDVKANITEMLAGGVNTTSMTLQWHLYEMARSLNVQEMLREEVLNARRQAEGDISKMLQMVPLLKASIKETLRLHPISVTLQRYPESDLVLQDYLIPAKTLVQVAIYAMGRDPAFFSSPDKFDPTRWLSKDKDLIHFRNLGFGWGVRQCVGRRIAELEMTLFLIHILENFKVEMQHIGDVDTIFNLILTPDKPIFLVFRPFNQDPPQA

Aromatase [3] = target: T1, Aromatase; experiment: Inhibition of Cytochrome P450 19A1 at 20 ug/mL
[4] = target: T3, Cytochrome P450 11A1 (desmolase, cholesterol side-chain cleavage enzyme) (Bos taurus, UniProt P00189); experiment: Inhibition of bovine adrenal desmolase cytochrome P450 11A1 at 50 ug/mL; details: cattle
T3 sequence (P00189 whole entry): T2 sequence (P00189 whole entry)

Compound	Inhibition (Aromatase [1])	Inhibition [2]	inhibition at 20 µg/mL (Aromatase [3]) [%]	inhibition at 50 ug/mL [4] [%]
CCC1(c2cc[n+]([O-])cc2)CCC(=O)NC1=O (configuration not stated)	Not Active	Not Active	–	–
CCC1(c2c(F)c(F)nc(F)c2F)CCC(=O)NC1=O (configuration not stated)	–	Not Active	25	–
CCC1(c2ccncc2)CCC(=O)N(N)C1=O (configuration not stated)	–	–	27	38
CCC1(c2ccncc2)CCC(=O)NC1=O (configuration not stated) [ROGLETIMIDE]	–	Not Active	–	–
